# Measured values taken from ChEMBL document CHEMBL4308923, “Identification of Human Toll-like Receptor 2-Agonistic Activity in Dihydropyridine-Quinolone Carboxamides” (ACS Med Chem Lett, 2019).
# The source made the active and inactive calls. The calls are words filed in the database; no cut-off is given here.
# Key:
# Assay type in all cases: cell-based
# [1] = target: T1, Toll-like receptor 2 (Homo sapiens, UniProt O60603); assay: Agonist activity at human TLR2 expressed in HEK-Blue cells harboring NFkB promoter-driven secreted alkaline phosphatase assessed as induction of NFkB after 12 hrs by spectrophotometric assay
# [2] = target: T1, Toll-like receptor 2; assay: Agonist activity at human TLR2 expressed in HEK cells assessed as induction of MCP1 by ELISA
# [3] = target: T1, Toll-like receptor 2; assay: Agonist activity at human TLR2 expressed in HEK cells assessed as induction of MIP1alpha level
# [4] = target: T1, Toll-like receptor 2; assay: Agonist activity at human TLR2 expressed in HEK cells assessed as induction of MIP1beta level
# [5] = target: T1, Toll-like receptor 2; assay: Agonist activity at human TLR2 expressed in human THP1-Blue cells harboring NFkB promoter-driven secreted alkaline phosphatase assessed as induction of NFkB after 12 hrs co-treated with PAM2CSK4 by spectrophotometric assay
# T1 sequence (O60603 whole entry): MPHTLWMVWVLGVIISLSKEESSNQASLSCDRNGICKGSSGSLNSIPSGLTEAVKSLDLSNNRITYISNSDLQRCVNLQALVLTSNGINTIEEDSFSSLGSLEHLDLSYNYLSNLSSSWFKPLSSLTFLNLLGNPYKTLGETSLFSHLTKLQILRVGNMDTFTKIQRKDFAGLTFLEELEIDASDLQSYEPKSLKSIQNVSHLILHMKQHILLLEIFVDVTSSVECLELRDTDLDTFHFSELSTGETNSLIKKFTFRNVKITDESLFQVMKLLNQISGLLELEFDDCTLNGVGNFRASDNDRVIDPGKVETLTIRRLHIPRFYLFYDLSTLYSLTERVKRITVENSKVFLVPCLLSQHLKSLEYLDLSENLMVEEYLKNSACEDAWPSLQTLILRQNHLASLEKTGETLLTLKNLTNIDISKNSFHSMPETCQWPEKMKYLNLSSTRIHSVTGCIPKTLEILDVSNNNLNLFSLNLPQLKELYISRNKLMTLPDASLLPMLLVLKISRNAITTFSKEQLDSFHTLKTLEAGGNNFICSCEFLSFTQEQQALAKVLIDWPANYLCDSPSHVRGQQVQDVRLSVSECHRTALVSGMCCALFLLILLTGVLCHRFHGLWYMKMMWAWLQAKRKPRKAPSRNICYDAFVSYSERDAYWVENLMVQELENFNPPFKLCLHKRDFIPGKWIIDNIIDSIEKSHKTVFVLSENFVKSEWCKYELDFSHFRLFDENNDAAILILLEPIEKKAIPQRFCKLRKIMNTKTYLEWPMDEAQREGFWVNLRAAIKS
Activity [1],SMILES,other results
Active,Cc1ccc(S(=O)(=O)N2CCC[C@H]2C(=O)N2c3ccc(F)cc3CC[C@H]2C)cc1,
inactive,CC1CCc2cc(F)cc3c(O)c(C(=O)NCc4ccc5[nH]ccc5c4)c(=O)n1c23 (configuration not stated),
inactive,CC1CCc2cc(F)cc3c(O)c(C(=O)NCc4ccnn4C)c(=O)n1c23 (configuration not stated),
Active,Cc1ccc(S(=O)(=O)N2CCC[C@H]2C(=O)N2c3ccc(F)cc3CC[C@@H]2C)cc1,
inactive,CC1CCc2cc(F)cc3c(O)c(C(=O)NCCn4ccnc4)c(=O)n1c23 (configuration not stated),
Active,C[C@H]1CCc2cc(F)ccc2N1,
inactive,CC1CCc2cc(F)cc3c(O)c(C(=O)NCc4cccc5ncccc45)c(=O)n1c23 (configuration not stated),
inactive,Cc1nnc(CNC(=O)c2c(O)c3cc(F)cc4c3n(c2=O)C(C)CC4)o1 (configuration not stated),
Active,C[C@@H]1CCc2cc(F)cc3c(O)c(C(=O)NCc4ccc(N)nc4)c(=O)n1c23,
inactive,CC1CCc2cc(F)cc3c(O)c(C(=O)NCC4CNCCO4)c(=O)n1c23 (configuration not stated),
inactive,CC1CCc2cc(F)cc3c(O)c(C(=O)NCc4ccc5c(c4)OCCO5)c(=O)n1c23 (configuration not stated),
inactive,CC1CCc2cc(F)cc3c(O)c(C(=O)NCc4ccc(N(C)C)nc4)c(=O)n1c23 (configuration not stated),
inactive,CC1CCc2cc(F)cc3c(O)c(C(=O)NCc4cccc5cc[nH]c45)c(=O)n1c23 (configuration not stated),
inactive,CC1CCc2cc(F)cc3c(O)c(C(=O)NCC4CCCNC4)c(=O)n1c23 (configuration not stated),
Active,C[C@@H]1CCc2cc(F)cc3c(O)c(C(=O)NCc4cccnc4)c(=O)n1c23,
inactive,CC1CCc2cc(F)cc3c(O)c(C(=O)NCc4nccn4C)c(=O)n1c23 (configuration not stated),
inactive,CC1CCc2cc(F)cc3c(O)c(C(=O)NCc4ccnc5[nH]ccc45)c(=O)n1c23 (configuration not stated),
inactive,COc1cc(CNC(=O)c2c(O)c3cc(F)cc4c3n(c2=O)C(C)CC4)ccn1 (configuration not stated),
inactive,Cc1nn(C)cc1CNC(=O)c1c(O)c2cc(F)cc3c2n(c1=O)C(C)CC3 (configuration not stated),
inactive,CC1CCc2cc(F)cc3c(O)c(C(=O)NCC4CCCCN4)c(=O)n1c23 (configuration not stated),
Active,C[C@H]1CCc2cc(F)cc3c(O)c(C(=O)NCc4cncc(F)c4)c(=O)n1c23,Activity [2]: Active; Activity [3]: Active; Activity [4]: Active; Activity [5]: Active
inactive,CC1CCc2cc(F)cc3c(O)c(C(=O)NCc4cncnc4)c(=O)n1c23 (configuration not stated),
inactive,CC1CCc2cc(F)cc3c(O)c(C(=O)NCc4ccnnc4)c(=O)n1c23 (configuration not stated),
inactive,CC1CCc2cc(F)cc3c(O)c(C(=O)NCc4cc5ccccc5[nH]4)c(=O)n1c23 (configuration not stated),
,Cc1ccncc1CNC(=O)c1c(O)c2cc(F)cc3c2n(c1=O)C(C)CC3 (configuration not stated),EC50 [1]: 1450 nM
inactive,CC1CCc2cc(F)cc3c(O)c(C(=O)NCc4cccnn4)c(=O)n1c23 (configuration not stated),
inactive,CC1CCc2cc(F)cc3c(O)c(C(=O)NCc4ccc5c(c4)OCO5)c(=O)n1c23 (configuration not stated),
inactive,Cc1cc(CNC(=O)c2c(O)c3cc(F)cc4c3n(c2=O)C(C)CC4)no1 (configuration not stated),

Activity [1],SMILES,other results
inactive,CC1CCc2cc(F)cc3c(O)c(C(=O)NCC4CCNCC4)c(=O)n1c23 (configuration not stated),
,CC1CCc2cc(F)cc3c(O)c(C(=O)NCCc4cccnc4)c(=O)n1c23 (configuration not stated),EC50 [1]: 1350 nM; EC50 [2]: 1860 nM
,CC1CCc2cc(F)cc3c(O)c(C(=O)NCc4ccc(N)nc4)c(=O)n1c23 (configuration not stated),EC50 [1]: 320 nM; EC50 [2]: 7560 nM
Active,C[C@@H]1CCc2cc(F)ccc2N1,
,CC1CCc2cc(F)cc3c(O)c(C(=O)NCc4ccc(Cl)nc4)c(=O)n1c23 (configuration not stated),EC50 [1]: 5000 nM
inactive,CC1CCc2cc(F)cc3c(O)c(C(=O)Nc4cccnc4)c(=O)n1c23 (configuration not stated),
inactive,CC1CCc2cc(F)cc3c(O)c(C(=O)NCC4CCOC4)c(=O)n1c23 (configuration not stated),
inactive,CC1CCc2cc(F)cc3c(O)c(C(=O)NCC4CCCN(C)C4)c(=O)n1c23 (configuration not stated),
inactive,CC1CCc2cc(F)cc3c(O)c(C(=O)NCc4cnn(C)c4)c(=O)n1c23 (configuration not stated),
inactive,CC1CCc2cc(F)cc3c(O)c(C(=O)NCc4ccccn4)c(=O)n1c23 (configuration not stated),
inactive,CC1CCc2cc(F)cc3c(O)c(C(=O)NCc4cccc5[nH]ccc45)c(=O)n1c23 (configuration not stated),
Active,C[C@H]1CCc2cc(F)cc3c(O)c(C(=O)NCc4ccc(N)nc4)c(=O)n1c23,Activity [2]: Active; Activity [3]: Active; Activity [4]: Active; Activity [5]: Active
inactive,CC1CCc2cc(F)cc3c(O)c(C(=O)NCc4ccno4)c(=O)n1c23 (configuration not stated),
,CC1CCc2cc(F)cc3c(O)c(C(=O)NC4CCc5ncccc54)c(=O)n1c23 (configuration not stated),EC50 [1]: 3000 nM
inactive,CC1CCc2cc(F)cc3c(O)c(C(=O)NCC4CCN(C)C4)c(=O)n1c23 (configuration not stated),
inactive,CC1CCc2cc(F)cc3c(O)c(C(=O)NCc4nc5ccccc5[nH]4)c(=O)n1c23 (configuration not stated),
inactive,CC1CCc2cc(F)cc3c(O)c(C(=O)NCc4ccsc4)c(=O)n1c23 (configuration not stated),
inactive,CC1CCc2cc(F)cc3c(O)c(C(=O)NCc4n[nH]c5ccccc45)c(=O)n1c23 (configuration not stated),
,CC1CCc2cc(F)cc3c(O)c(C(=O)NCc4cncc(F)c4)c(=O)n1c23 (configuration not stated),EC50 [1]: 1000 nM; EC50 [2]: 4520 nM
inactive,CC1CCc2cc(F)cc3c(O)c(C(=O)NCc4cccc(C(N)=O)c4)c(=O)n1c23 (configuration not stated),
inactive,CC1CCc2cc(F)cc3c(O)c(C(=O)NCc4nc5ccccc5n4C)c(=O)n1c23 (configuration not stated),
,CC1CCc2cc(F)cc3c(O)c(C(=O)NCc4cccnc4)c(=O)n1c23 (configuration not stated),EC50 [1]: 300 nM; EC50 [2]: 1350 nM
inactive,CC1CCc2cc(F)cc3c(O)c(C(=O)NCc4ccncc4)c(=O)n1c23 (configuration not stated),
inactive,CC1CCc2cc(F)cc3c(O)c(C(=O)NCc4cccs4)c(=O)n1c23 (configuration not stated),
,CC1CCc2cc(F)cc3c(O)c(C(=O)NCc4cccnc4N(C)C)c(=O)n1c23 (configuration not stated),EC50 [1]: 3200 nM; EC50 [2]: 3090 nM
inactive,CC1CCc2cc(F)cc3c(O)c(C(=O)NCc4cnc5ccccc5c4)c(=O)n1c23 (configuration not stated),
Active,C[C@H]1CCc2cc(F)cc3c(O)c(C(=O)NCc4cccnc4)c(=O)n1c23,Activity [2]: Active; Activity [3]: Active; Activity [4]: Active; Activity [5]: Active
